Assay results published in ChEMBL document CHEMBL1201862, “PubChem BioAssay data set” (2004).
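Compound exposure: 48 hours, 5 concentrations, 96-well plates. GI50: concentration for 50% inhibition of growth.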 Activity calls are given as the source filed them. Rule as the data show it: active = GI50 up to about 1.1 µM and inactive = higher.

Assays:
Experiment in all cases: growth of human tumour cells (NCI), 48 h
[1] = system: SK-MEL-28
[2] = system: MDA-N
[3] = system: MCF7
[4] = system: CCRF-CEM
[5] = system: OVCAR-8
[6] = system: OVCAR-5
[7] = system: Malme-3M
[8] = system: LOX IMVI
[9] = system: HL-60
[10] = system: SNB-19
[11] = system: HCT-116
[12] = system: M14
[13] = system: U-251
[14] = system: SNB-75
[15] = system: SW-620
[16] = system: K562
[17] = system: OVCAR-3
[18] = system: UACC-62
[19] = system: RXF 393
[20] = system: MOLT-4
[21] = system: 786-0
[22] = system: SR
[23] = system: MDA-MB-435
[24] = system: KM12
[25] = system: SF-268
[26] = system: COLO 205
[27] = system: A549
[28] = system: NCI/ADR-RES
[29] = system: DU-145
[30] = system: PC-3
[31] = system: EKVX
[32] = system: OVCAR-4
[33] = system: HCC 2998
[34] = system: UO-31
[35] = system: ACHN
[36] = system: BT-549
[37] = system: NCI-H23
[38] = system: T47D
[39] = system: NCI-H460
[40] = system: HOP-62
[41] = system: HT-29
[42] = system: SN12C
[43] = system: SK-MEL-5
[44] = system: CAKI-1
[45] = system: SK-MEL-2
[46] = system: NCI-H226
[47] = system: SK-OV-3
[48] = system: SF-295
[49] = system: SF-539
[50] = system: HCT-15
[51] = system: Hs-578T
[52] = system: UACC-257
[53] = system: IGROV-1
[54] = system: TK-10
[55] = system: RPMI-8226
[56] = system: MDA-MB-231
[57] = system: A498

Structure (SMILES): CCN1CCCn2c(=O)[nH]c3cc(Br)cc1c32
- GI50 [1]: > 100 µM (inactive)
- GI50 [2]: > 100 µM (inactive)
- GI50 [3]: > 100 µM (inactive)
- GI50 [4]: > 100 µM (inactive)
- GI50 [5]: 27 µM (inactive)
- GI50 [6]: > 100 µM (inactive)
- GI50 [7]: > 100 µM (inactive)
- GI50 [8]: > 100 µM (inactive)
- GI50 [9]: > 100 µM (inactive)
- GI50 [10]: 89.1 µM (inactive)
- GI50 [11]: > 100 µM (inactive)
- GI50 [12]: > 100 µM (inactive)
- GI50 [13]: 41.3 µM (inactive)
- GI50 [14]: 16.7 µM (inactive)
- GI50 [15]: > 100 µM (inactive)
- GI50 [16]: > 100 µM (inactive)
- GI50 [17]: > 100 µM (inactive)
- GI50 [18]: 69.8 µM (inactive)
- GI50 [19]: 15.2 µM (inactive)
- GI50 [20]: 60.8 µM (inactive)
- GI50 [21]: 65 µM (inactive)
- GI50 [22]: > 100 µM (inactive)
- GI50 [23]: > 100 µM (inactive)
- GI50 [24]: > 100 µM (inactive)
- GI50 [25]: 24 µM (inactive)
- GI50 [26]: > 100 µM (inactive)
- GI50 [27]: > 100 µM (inactive)
- GI50 [28]: > 100 µM (inactive)
- GI50 [29]: > 100 µM (inactive)
- GI50 [30]: > 100 µM (inactive)
- GI50 [31]: 706 nM (active)
- GI50 [32]: > 100 µM (inactive)
- GI50 [33]: > 100 µM (inactive)
- GI50 [34]: > 100 µM (inactive)
- GI50 [35]: > 100 µM (inactive)
- GI50 [36]: 14.6 µM (inactive)
- GI50 [37]: > 100 µM (inactive)
- GI50 [38]: 65.5 µM (inactive)
- GI50 [39]: > 100 µM (inactive)
- GI50 [40]: 25.5 µM (inactive)
- GI50 [41]: > 100 µM (inactive)
- GI50 [42]: > 100 µM (inactive)
- GI50 [43]: > 100 µM (inactive)
- GI50 [44]: > 100 µM (inactive)
- GI50 [45]: > 100 µM (inactive)
- GI50 [46]: 55.5 µM (inactive)
- GI50 [47]: 25.2 µM (inactive)
- GI50 [48]: 35.1 µM (inactive)
- GI50 [49]: 23 µM (inactive)
- GI50 [50]: > 100 µM
- GI50 [51]: 394 nM (active)
- GI50 [52]: > 100 µM (inactive)
- GI50 [53]: > 100 µM (inactive)
- GI50 [54]: 51.6 µM (inactive)
- GI50 [55]: > 100 µM (inactive)
- GI50 [56]: 38.4 µM (inactive)
- GI50 [57]: 15.1 µM (inactive)
